Laboratory results taken from patent publication US11254668B2, “Pyrazolo[1,5-A]pyrazin-4-yl and related derivatives” (Pfizer Inc., priority 2017, dated 2022).

Legend:
Assay type in all cases: biochemical
[1] = target: JAK3 (Homo sapiens (Human), UniProt P52333); test: JAK Caliper Enzyme Assay at 1 mM ATP, JAK3
Procedure, shortened: (§1)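 Recombinant human kinase domains phosphorylate a fluorescent synthetic peptide at 1 mM ATP, room temperature, with enzyme and time tuned for 20-30% conversion; EDTA-stopped. Product/substrate separated by microfluidic mobility shift; percent effect versus DMSO and positive controls fitted to IC50 (nM).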

[2] = target: JAK1 (Homo sapiens (Human), UniProt P23458); test: JAK Caliper Enzyme Assay at 1 mM ATP, JAK1
JAK1, sequence (P23458 875-1153): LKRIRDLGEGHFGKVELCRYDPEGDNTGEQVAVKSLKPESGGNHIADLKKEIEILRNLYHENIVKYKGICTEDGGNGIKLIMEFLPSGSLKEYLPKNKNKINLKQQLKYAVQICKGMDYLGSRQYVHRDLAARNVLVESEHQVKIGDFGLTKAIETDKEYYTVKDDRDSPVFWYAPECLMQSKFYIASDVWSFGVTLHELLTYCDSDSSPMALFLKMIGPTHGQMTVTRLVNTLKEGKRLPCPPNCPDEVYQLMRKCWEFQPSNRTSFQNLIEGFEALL
Procedure, shortened: as §1

[3] = target: JAK2 (Homo sapiens (Human), UniProt O60674); test: JAK Caliper Enzyme Assay at 1 mM ATP, JAK2
JAK2, sequence (O60674 849-1124): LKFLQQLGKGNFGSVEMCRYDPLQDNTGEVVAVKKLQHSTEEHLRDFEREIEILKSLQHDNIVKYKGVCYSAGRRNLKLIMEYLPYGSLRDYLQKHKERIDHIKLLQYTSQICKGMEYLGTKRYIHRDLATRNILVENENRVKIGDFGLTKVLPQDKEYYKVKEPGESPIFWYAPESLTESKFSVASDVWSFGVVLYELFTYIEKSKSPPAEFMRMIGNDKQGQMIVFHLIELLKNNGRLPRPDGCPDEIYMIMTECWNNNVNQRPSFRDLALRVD
Procedure, shortened: (§2)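 Recombinant human kinase domains phosphorylate a fluorescent synthetic peptide at 1 mM ATP and room temperature, with enzyme level and time tuned to 20–30% conversion before an EDTA stop. Microfluidic mobility-shift separation gives percent product from peak heights. Percent effect against plate controls (DMSO baseline) is plotted versus compound concentration.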

[4] = target: TYK2 (Homo sapiens (Human), UniProt P29597); test: JAK Caliper Enzyme Assay at 1 mM ATP, TYK2
TYK2, sequence (P29597 897-1176): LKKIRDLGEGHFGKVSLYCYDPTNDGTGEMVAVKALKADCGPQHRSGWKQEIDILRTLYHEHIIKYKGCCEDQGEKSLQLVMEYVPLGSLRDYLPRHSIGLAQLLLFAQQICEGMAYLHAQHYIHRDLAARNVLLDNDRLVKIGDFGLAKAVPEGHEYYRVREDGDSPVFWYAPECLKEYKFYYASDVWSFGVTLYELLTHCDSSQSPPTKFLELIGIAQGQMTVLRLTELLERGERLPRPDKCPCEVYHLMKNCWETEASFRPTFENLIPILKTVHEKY
Procedure, shortened: as §2

JAK3, sequence (P52333 822-1111): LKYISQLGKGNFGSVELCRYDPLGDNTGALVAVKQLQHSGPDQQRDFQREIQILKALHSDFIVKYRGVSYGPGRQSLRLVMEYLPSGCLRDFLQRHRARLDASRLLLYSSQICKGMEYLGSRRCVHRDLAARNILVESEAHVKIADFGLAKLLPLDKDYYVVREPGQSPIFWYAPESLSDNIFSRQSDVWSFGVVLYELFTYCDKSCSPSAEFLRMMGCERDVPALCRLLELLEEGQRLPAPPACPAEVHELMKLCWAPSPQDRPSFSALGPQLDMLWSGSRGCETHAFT

| SMILES | IC50 [1] [µM] | IC50 [2] [nM] | IC50 [3] [nM] | IC50 [4] [nM] |
| --- | --- | --- | --- | --- |
| CN1CCC(n2cc(-c3cc4ncccc4c(-c4ccn(C5(CC#N)CN(CC(F)(F)F)C5)n4)n3)cn2)CC1 [Example 117, [3-(3-{7-[1-(1-methylpiperidin-4-yl)-1H-pyrazol-4-yl]-1,6-naphthyridin-5-yl}-1H-pyrazol-1-yl)-1-(2,2,2-trifluoroethyl)azetidin-3-yl]acetonitrile] | 6.96 | 1060 | 64 | 88 |
| CS(=O)(=O)N1CC(CC#N)(n2ccc(-c3nc(-c4cnn(C(F)(F)F)c4)cc4ncccc34)n2)C1 [Example 118, [1-(methylsulfonyl)-3-(3-{7-[1-(trifluoromethyl)-1H-pyrazol-4-yl]-1,6-naphthyridin-5-yl}-1H-pyrazol-1-yl)azetidin-3-yl]acetonitrile] | > 10 | 9060 | 4160 | 843 |
| N#CCC1(n2ccc(-c3nc(-c4cnn(C5COC5)c4)cc4ncccc34)n2)CN(CC(F)(F)F)C1 [Example 119, [3-(3-{7-[1-(oxetan-3-yl)-1H-pyrazol-4-yl]-1,6-naphthyridin-5-yl}-1H-pyrazol-1-yl)-1-(2,2,2-trifluoroethyl)azetidin-3-yl]acetonitrile] | 8.38 | 976 | 82 | 29 |
| CS(=O)(=O)N1CC(CC#N)(n2ccc(-c3nc(-c4cnn(C5COC5)c4)cc4ncccc34)n2)C1 [Example 121, [1-(methylsulfonyl)-3-(3-{7-[1-(oxetan-3-yl)-1H-pyrazol-4-yl]-1,6-naphthyridin-5-yl}-1H-pyrazol-1-yl)azetidin-3-yl]acetonitrile] | 9.59 | 1750 | 101 | 20 |
| CO[C@H]1C[C@@](CC#N)(n2ccc(-c3nc(-c4cnn(C5COC5)c4)cc4ncccc34)n2)C1 [Example 122, [cis-3-methoxy-1-(3-{7-[1-(oxetan-3-yl)-1H-pyrazol-4-yl]-1,6-naphthyridin-5-yl}-1H-pyrazol-1-yl)cyclobutyl]acetonitrile] | > 10 | 6660 | 391 | 110 |
| CS(=O)(=O)N1CC(CC#N)(n2ccc(-c3nc(-c4cnn([C@H]5CCOC5)c4)cc4ncccc34)n2)C1 [Example 123, {1-(methylsulfonyl)-3-[3-(7-{1-[(3S)-tetrahydrofuran-3-yl]-1H-pyrazol-4-yl}-1,6-naphthyridin-5-yl)-1H-pyrazol-1-yl]azetidin-3-yl}acetonitrile] | 9.66 | 744 | 54 | 21 |
| CS(=O)(=O)N1CC(CC#N)(n2ccc(-c3nc(-c4cnn([C@@H]5CCOC5)c4)cc4ncccc34)n2)C1 [Example 124, {1-(methylsulfonyl)-3-[3-(7-{1-[(3R)-tetrahydrofuran-3-yl]-1H-pyrazol-4-yl}-1,6-naphthyridin-5-yl)-1H-pyrazol-1-yl]azetidin-3-yl}acetonitrile] | 9.88 | 715 | 68 | 27 |
| CS(=O)(=O)N1CC(CC#N)(n2ccc(-c3nc(-c4cnn(CCO)c4)cc4ncccc34)n2)C1 [Example 125, [3-(3-{7-[1-(2-hydroxyethyl)-1H-pyrazol-4-yl]-1,6-naphthyridin-5-yl}-1H-pyrazol-1-yl)-1-(methylsulfonyl)azetidin-3-yl]acetonitrile] | > 10 | 965 | 162 | 33 |
| N#CC[C@]1(n2ccc(-c3nc(-c4cnn(CCO)c4)cc4ncccc34)n2)C[C@H](C#N)C1 [Example 126, trans-3-(cyanomethyl)-3-(3-{7-[1-(2-hydroxyethyl)-1H-pyrazol-4-yl]-1,6-naphthyridin-5-yl}-1H-pyrazol-1-yl)cyclobutanecarbonitrile] | > 10 | 583 | 119 | 41 |
| N#CC[C@]1(n2ccc(-c3nc(-c4cnn(CCO)c4)cc4ncccc34)n2)C[C@@H](C#N)C1 [Example 127, cis-3-(cyanomethyl)-3-(3-{7-[1-(2-hydroxyethyl)-1H-pyrazol-4-yl]-1,6-naphthyridin-5-yl}-1H-pyrazol-1-yl)cyclobutanecarbonitrile] | 1.05 | 64 | 20 | 17 |
| CO[C@H]1C[C@@](CC#N)(n2ccc(-c3nc(-c4cnn(CCO)c4)cc4ncccc34)n2)C1 [Example 128, [cis-1-(3-{7-[1-(2-hydroxyethyl)-1H-pyrazol-4-yl]-1,6-naphthyridin-5-yl}-1H-pyrazol-1-yl)-3-methoxycyclobutyl]acetonitrile] | > 10 | 3530 | 620 | 115 |
| CO[C@H]1C[C@](CC#N)(n2ccc(-c3nc(-c4cnn(CCO)c4)cc4ncccc34)n2)C1 [Example 129, [trans-1-(3-{7-[1-(2-hydroxyethyl)-1H-pyrazol-4-yl]-1,6-naphthyridin-5-yl}-1H-pyrazol-1-yl)-3-methoxycyclobutyl]acetonitrile] | > 10 | 5920 | 1230 | 133 |
| CS(=O)(=O)N1CC(CC#N)(n2ccc(-c3nc(-c4cnn(C(CO)CCl)c4)cc4ncccc34)n2)C1 (centres unmarked) [Example 130, [3-(3-{7-[1-(1-chloro-3-hydroxypropan-2-yl)-1H-pyrazol-4-yl]-1,6-naphthyridin-5-yl}-1H-pyrazol-1-yl)-1-(methylsulfonyl)azetidin-3-yl]acetonitrile] | 9.52 | 232 | 63 | 32 |
| CS(=O)(=O)N1CC(CC#N)(n2ccc(-c3nc(-c4cnn(CC5COC5)c4)cc4ncccc34)n2)C1 [Example 132, [1-(methylsulfonyl)-3-(3-{7-[1-(oxetan-3-ylmethyl)-1H-pyrazol-4-yl]-1,6-naphthyridin-5-yl}-1H-pyrazol-1-yl)azetidin-3-yl]acetonitrile] | 9.12 | 619 | 70 | 22 |
| Cn1ncc(-c2cc3ncccc3c(-c3ccn(C4(CC#N)CN(S(C)(=O)=O)C4)n3)n2)c1C(N)=O [Example 134, 4-(5-{1-[3-(cyanomethyl)-1-(methylsulfonyl)azetidin-3-yl]-1H-pyrazol-3-yl}-1,6-naphthyridin-7-yl)-1-methyl-1H-pyrazole-5-carboxamide] | > 10 | > 10000 | > 10000 | 685 |
| Cn1cc(-c2cc3ncccc3c(-c3ccn([C@]4(CC#N)C[C@@H](C#N)C4)n3)n2)c(CO)n1 [Example 135, trans-3-(cyanomethyl)-3-(3-{7-[3-(hydroxymethyl)-1-methyl-1H-pyrazol-4-yl]-1,6-naphthyridin-5-yl}-1H-pyrazol-1-yl)cyclobutanecarbonitrile] | 2.02 | 489 | 34 | 20 |
| Cn1ncc(-c2cc3ncccc3c(-c3ccn([C@]4(CC#N)C[C@@H](C#N)C4)n3)n2)c1CO [Example 136, trans-3-(cyanomethyl)-3-(3-{7-[5-(hydroxymethyl)-1-methyl-1H-pyrazol-4-yl]-1,6-naphthyridin-5-yl}-1H-pyrazol-1-yl)cyclobutanecarbonitrile] | > 10 | 618 | 260 | 44 |
